Assay results published in patent publication US5834506A, “Dihydropyrones with improved antiviral activity” (Warner-Lambert Company, priority 1997, dated 1998).
pEC50, pIC50: −log10 of the molar value. Where two headings read alike, the source gives them in different places.

Tests used:
[1] = Cellular toxicity in uninfected CEM cells (TC50); assay type: cell-based; conditions: human, inhibits 50% of the viability of uninfected cells
Experimental: (§1) Compounds were tested in lymphocyte derived CEM cells using the XTT cytopathic procedures and were performed at Southern Research Institute (Buckheit, et. al. Antiviral Res. 1993, 21, 247; see also Weislow, et al. J Nat. Cancer Inst., 1989, 81, 577). Compound concentrations were 0.32, 1, 3.2, 10, 32 and 100 uM. The EC50 represents the concentration of agent which reduces HIV cytopathic effects 50% relative to untreated control. EC95 represents the concentration of agent protecting the cells 95% relative to untreated control. Cellular toxicity of the agents are estimated from the TC50 which represents the concentration of the agent which inhibits 50% of the viability of uninfected cells.

[2] = system: HIV in lymphocyte derived CEM cells; assay: Cellular Infection Assay, antiviral efficacy in HIV infected CEM cells (XTT cytopathic procedure); assay type: cell-based; conditions: Human immunodeficiency virus 1, CCRF-CEM; for EC95: protecting the cells 95% relative to untreated control; for pEC50: read-out: Antiviral Efficacy EC50
Experimental: (§2) The compounds of the present invention were evaluated for their in vitro inhibition of HIV-1 protease and for their antiviral efficacy in HIV infected lymphocytes.
as §1

[3] = molecular target: T1, HIV-1 protease (Human immunodeficiency virus type 1 group M subtype B, UniProt P04585); assay: biochemical; conditions: read-out: Inhib of HIV-Protease IC50
T1 construct: Recombinant HIV-1 protease (>96% purity); purchased Bachem Bioscience Inc. (King of Prussia, PA)
Source text: The testing of specific 5,6-dihydropyrones as inhibitors of the HIV aspartyl protease, based on the study of the hydrolysis of an undecapeptide enzyme substrate, and the testing of the 5,6-dihydropyrones as inhibitors of viral growth and infectivity, based on the study of infection of H9 cell lines by the HIV-1iiib strain, are also disclosed. […] The methods employed follow the procedures of Tummino, et al. (Archives of Biochemistry and Biophysics 1995, 316, 523).
as §2
Recombinant HIV-1 protease (>96% purity) and HIV protease substrate III (the undecapeptide H-His-Lys-Ala-Arg-Val-Leu-Nph-Glu-Ala-Nle-Ser-NH2,>97% purity) were purchased from Bachem Bioscience Inc. (King of Prussia, PA).
The methods employed follow the procedures of Tummino, et al. (Archives of Biochemistry and Biophysics 1995, 316, 523). […] (total volume, 100 μl). […] The final inhibitor concentrations used were 0 (0.1, 0.2, in some experiments), 0.5, 1, 2, 5, 10, 20, 50, and 100 μM. The solution was mixed, incubated for 5 minutes and the reaction quenched by addition of trifluoracetic acid, 2% final. The (leu-p-nitro-phe) bond of the substrate is cleaved by the enzyme and substrate and products separated by reverse-phase HPLC. Absorbance was measured at 220 nm, peak areas determined, and percentage conversion to product used to calculate percentage control (=[% conversion (+inhibitor)/% conversion (-inhibitor)]×100).

[4] = CEM cells, reduces HIV cytopathic effects 50% relative to untreated control
[5] = 6.0 nM HIV-1 protease, 40 μM substrate III, 37° C., 5 minutes

SMILES	pEC50 [2, 4]	pIC50 [3, 5]	pIC50 [3]	CC50 [1] [µM]	EC95 ([2]; CEM cells) [µM]	pEC50 [2]
Cc1cc(SC2=C(O)CC(CCc3cccc(O)c3)(CCc3cccc(O)c3)OC2=O)c(C(C)(C)C)cc1CO [Example 21, 3-(2-tert-Butyl-4-hydroxymethyl-5-methyl-phenylsulfanyl)-4-hydroxy-6,6-bis-[2-(3-hydroxy-phenyl)ethyl]-5,6-dihydro-pyran-2-one]	5.32	8.68	–	66	9.3	–
Cc1cc(SC2=C(O)CC(CCc3cccc(O)c3)(CCc3cccc(O)c3)OC2=O)c(C(C)(C)C)cc1OS(=O)(=O)N(C)C [Example 22, Dimethyl-sulfamic acid 5-tert-butyl-4-{4-hydroxy-6,6-bis-[2-(3-hydroxy-phenyl)-ethyl]-2-oxo-5,6-dihydro-2H-pyran-3-yisulfanyl}-2-methyl-phenyl ester]	5.64	8.05	–	66	8.3	–
COc1cc(CCC2(CCc3ccc(O)c(OC)c3)CC(O)=C(Sc3cc(C)c(OCCO)cc3C(C)(C)C)C(=O)O2)ccc1O [Example 23, 3-[2-tert-Butyl-4-(2-hydroxy-ethoxy)-5-methyl-phenylsulfanyl]-4-hydroxy-6,6-bis [2-(4-hydroxy-3-methoxy-phenyl)-ethyl]-5,6-dihydro-pyran-2-one]	5.70	8.47	–	61	7.9	–
Cc1cc(SC2=C(O)CC(CCc3ccccc3)(c3ccc(OCCN4CCNCC4)cc3)OC2=O)c(C(C)(C)C)cc1OS(=O)(=O)N(C)C (centres unmarked) [Example 26, Dimethyl-sulfamic acid 5-tert-butyl-4-{4-hydroxy-2-oxo-6-phenethyl-6-[4-(2-piperazin-1-yl-ethoxy)-phenyl]-5,6-dihydro-2H-pyran-3-ylsulfanyl}-2-methyl-phenyl ester]	–	8.29	–	> 100	9.3	5.29
CCNS(=O)(=O)Oc1cc(C(C)(C)C)c(SC2=C(O)CC(CCc3ccc(N)cc3)(CCc3ccc(N)cc3)OC2=O)cc1C [Example 29, Ethyl-sulfamic acid 5-tert-butyl-4-{6,6-bis-[2-(4-amino-phenyl)-ethyl]-4-hydroxy-2-oxo-5,6-dihydro-2H-pyran-3-ylsulfanyl}2-methyl-phenyl ester]	5.92	8.74	–	66	2.9	–
Cc1cc(SC2=C(O)CC(CCc3ccc(O)cc3)(CCc3ccc(O)cc3)OC2=O)c(C(C)(C)C)cc1OS(=O)(=O)N1CCN(C)CC1 [Example 30, 4-Methyl-piperazine-1-sulfonic acid 5-tert-butyl-4-{4-hydroxy-6,6-bis-[2-(4-hydroxy-phenyl)-ethyl]-2-oxo-5,6-dihydro-2H-pyran-3-ylsulfanyl}-2-methyl-phenyl ester]	5.30	8.26	–	66	9.3	–
Cc1ccc(C(C)(C)C)c(SC2=C(O)CC(CCc3ccccc3)(c3ccc(OCCN4CCNCC4)cc3)OC2=O)c1 (centres unmarked) [Example 35, 3-(2-tert-Butyl-5-methyl-phenylsulfanyl)-4-hydroxy-6-phenethyl-6-[4-(2-piperazin-1-yl-ethoxy)-phenyl]-5,6-dihydro-pyran-2-one]	5.46	8.20	–	84	8	–
Cc1cc(SC2=C(O)CC(CCc3cccc(O)c3)(c3ccccc3)OC2=O)c(C(C)(C)C)cc1CO (centres unmarked) [Example 37, 3-(2-tert-Butyl-4-hydroxymethyl-5-methyl-phenylsulfanyl)-4-hydroxy-6-[2-(3-hydroxy-phenyl)-ethyl]-6-phenyl-5,6-dihydro-pyran-2-one]	5.21	–	8.60	> 100	–	–
Cc1cc(SC2=C(O)CC(CCc3cccc(O)c3)(C3CCCC3)OC2=O)c(C(C)(C)C)cc1CO (centres unmarked) [Example 39, 3-(2-tert-Butyl-4-hydroxymethyl-5-methyl-phenylsulfanyl)-6-cyclopentyl-4-hydroxy-6-[2-(3-hydroxy-phenyl)-ethyl]-5,6-dihydro-pyran-2-one]	> 6.52	8.72	–	> 100	0.6	–
Cc1cc(SC2=C(O)CC(CCc3ccccc3)(c3ccc(OCCO)cc3)OC2=O)c(C(C)(C)C)cc1OS(=O)(=O)N1CCN(C)CC1 (centres unmarked) [Example 46]	5.27	7.92	–	58	9.8	–
CCNS(=O)(=O)Oc1cc(C(C)(C)C)c(SC2=C(O)CC(CCc3ccc(O)c(OC)c3)(c3ccc(OCCO)cc3)OC2=O)cc1C (centres unmarked) [Example 48]	5.16	8.62	–	> 100	26	–
Cc1cc(SC2=C(O)CC(CCc3ccc4c(c3)OCO4)(C(C)C)OC2=O)c(C(C)(C)C)cc1CO (centres unmarked) [Example 61]	6.00	8.51	–	78	15	–
Cc1cc(SC2=C(O)CC(CCc3ccc(O)cc3)(C3CCCC3)OC2=O)c(C(C)(C)C)cc1CO (centres unmarked) [Example 62]	6.22	8.51	–	> 100	2.5	–
Cc1cc(SC2=C(O)CC(CCc3ccc(N)cc3C)(C3CCCCC3)OC2=O)c(C(C)(C)C)cc1CO (centres unmarked) [Example 72]	6.30	8.36	–	66	8.5	–

More lines, main results first:

pEC50 [2, 4]	pIC50 [3, 5]	pIC50 [3]	SMILES	CC50 [1] [µM]	EC95 ([2]; CEM cells) [µM]	pEC50 [2]
5.26	8.89	–	CCNS(=O)(=O)Oc1cc(C(C)(C)C)c(SC2=C(O)CC(CCc3ccc(O)cc3)(CCc3ccc(O)cc3)OC2=O)cc1C [Example 28]	67	9.4	–
5.64	8.15	–	Cc1cc(SC2=C(O)CC(C)(CCc3ccc(O)cc3)OC2=O)c(C(C)(C)C)cc1OS(=O)(=O)N1CCN(C)CC1 (centres unmarked) [Example 31, 4-Methyl-piperazine-1-sulfonic acid 5-tert-butyl-4-{4-hydroxy-6-[2-(4-hydroxy-phenyl)-ethyl]-6-methyl-2-oxo-5,6-dihydro-2H-pyran-3-ylsulfanyl}-2-methyl-phenyl ester]	> 100	8.4	–
5.33	8.80	–	Cc1cc(SC2=C(O)CC(CCc3ccc(O)cc3)(c3ccccc3)OC2=O)c(C(C)(C)C)cc1CO (centres unmarked) [Example 36, 3-(2-tert-Butyl-4-hydroxymethyl-5-methyl-phenylsulfanyl)-4-hydroxy-6-[2-(4-hydroxy-phenyl)-ethyl]-6-phenyl-5,6-dihydro-pyran-2-one]	> 100	20	–
> 6.52	–	9.00	Cc1cc(SC2=C(O)C[C@@](CCc3ccc(O)cc3)(C(C)C)OC2=O)c(C(C)(C)C)cc1CO [Example 38, (S)-3-(2-tert-Butyl-4-hydroxymethyl-5-methyl-phenylsulfanyl)-4-hydroxy-6-[2-(4-hydroxy-phenyl)-ethyl]-6-isopropyl-5,6-dihydro-pyran-2-one (+)]	> 100	1	–
5.28	8.74	–	Cc1cc(SC2=C(O)CC(C)(CCc3ccc(O)cc3)OC2=O)c(C(C)(C)C)cc1OS(N)(=O)=O (centres unmarked) [Example 43]	69	9.4	–
5.55	7.68	–	Cc1cc(SC2=C(O)CC(CCc3ccc(O)cc3)(C(C)C)OC2=O)c(C(C)(C)C)cc1NC(=O)c1ccccc1 (centres unmarked) [Example 58]	66	24	–
6.30	–	8.51	Cc1cc(SC2=C(O)CC(CCc3ccc(O)cc3)(C(C)C)OC2=O)c(C(C)(C)C)cc1OS(=O)(=O)N1CCN(C)CC1 (centres unmarked) [Example 67]	> 100	2	–
4.80	7.25	–	Cc1cc(SC2=C(O)CC(C)(CCc3ccc(O)cc3)OC2=O)c(C(C)(C)C)cc1NC(=O)c1ccc(C#N)cc1 (centres unmarked) [Example 68]	> 100	30	–
5.62	8.43	–	Cc1cc(SC2=C(O)CC(C)(CCc3ccc(O)cc3)OC2=O)c(C(C)(C)C)cc1NS(=O)(=O)c1ccc(F)cc1 (centres unmarked) [Example 71]	93	8.6	–
5.74	8.06	–	Cc1cc(SC2=C(O)CC(CCc3ccc(O)cc3)(C(C)C)OC2=O)c(C(C)(C)C)cc1NS(=O)(=O)c1cccs1 (centres unmarked) [Example 77]	> 100	5.2	–
